Tests used:
[1] = tested on: MCF7/vBOS cells (DSM ACC3321); assay: Prevention of fulvestrant-induced discontinuous adherens junctions by estrogenic compounds; type: cell-based, human; conditions: for prevention of the formation of discontinuous adherens junctions: along with 10^−8 M fulvestrant; for minimal concentration preventing the fulvestrant-induced phenotype: co-treatment with 10^−8 M fulvestrant, 48 h
Description: Briefly, MCF7/vBOS cells were grown on glass coverslips in multi-well tissue culture plates (TPP) for 24 h and then treated for 48 h with 0.1% EtOH (solvent control), the anti-estrogen fulvestrant in the fixed concentration of 10^−8 M and different concentrations (10^−10 M, 10^−9 M, 10^−8 M, 10^−7 M) of the ERα agonist 17β-estradiol. The solvent control was used as a positive control and fulvestrant at a concentration of 10^−8 M without 17β-estradiol addition was used as a negative control. Sample preparation and immunofluorescence microscopy was performed as described in example 2 above. After 48 hours the fraction of cells displaying discontinuous adherens junctions was determined by CellProfiler/CellProfer-analyst software (see example 7).
The same protocols as in example 2 were used with the following deviations: • Bisphenol A: Cells were grown for 24 h and then treated for 48 h with 10^−8 M fulvestrant and 10^−5 or 10^−4 M bisphenol A, respectively, diluted in DSMO. • Nonylphenol: Cells were grown for 24 h and then treated for 48 h with 10^−8 M fulvestrant and 10^−5 or 10^−4 nonylphenol, respectively, diluted in ethanol.
Briefly, cell culture, sample preparation and immunofluorescence microscopy was performed as described in example 2 (ERα signalling inhibition (fulvestrant titration)) and example 5 (ERα signalling restoration (fulvestrant at 10^−8 M in combination with 17β-estradiol titration))..
Subsequently, quantitative image analysis was performed using a pipeline that builds on the CellProfiler software (Carpenter et al., Genome Biol., 2006; 7(10):R100.) for segmentation and extraction of cellular parameters, and on the CellProfiler Analyst software (Jones et al., BMC Bioinformatics, 2008 Nov. 15; 9:482) for parameter-based classification of cells. In the segmentation process, primary objects (nuclei) were identified from DAPI staining by global thresholding using Otsu's method. Next, primary objects served as seeding points for identification of secondary objects (cell membranes) at a defined distance. Finally, tertiary objects (cytoplasm) were defined by subtracting primary from secondary objects. The resulting object masks were then applied to extract cellular parameters including area, shape, distribution and variation of pixel intensities, and mean intensity from the corresponding greyscale images using the CellProfiler MeasureObjectSizeShape, MeasureObjectRadialDistribution, MeasureTexture, and MeasureObjectIntensity modules, and stored in a database file. This database file was then imported into the Classifier module of the CellProfiler Analyst software for supervised training with a subset of cells, and subsequent parameter-based automatic classification of all cells within the entire image dataset. For immunofluorescence images, supervised training based on cell membrane features (E-Cad channel) was conducted with two classes representing continuous adherens junctions (Continuous AJs') and discontinuous adherens junctions (Discontinuous AJs′) (about 30 cells for each class). After the supervised training process had been completed, the entire image dataset from a specific experiment was evaluated and all identified cells were automatically classified into corresponding classes according to their individual parameters. The fraction of cells representing ‘Continuous AJs’ and ‘Discontinuous AJs’ classes were finally graphically represented in stacked bar plots.

[2] = tested on: MCF7/vBOS cells (DSM ACC3321); assay: Formation of discontinuous basolateral adherens junctions upon anti-estrogen exposure (E-Cadherin immunofluorescence); type: cell-based, human; conditions: for Concentration (M) suitable for manifestation of the discontinuous basolateral adherens junctions phenotype / Culture time (h) typically required for formation of discontinuous basolateral adherens junctions: cell as deposited under DSM ACC3321; for formation of discontinuous adherens junctions (E-Cadherin staining): concentration and incubation time per compound as in FIGS. 1-3
Excerpt: The time usually required for formation of discontinuous basolateral adherens junctions will depend on the estrogen receptor binding affinity and concentration of the anti-estrogen used on the one hand and the cell used on the other hand, but a person skilled in the art will be readily capable of determining the appropriate time spans and concentration for a given anti-estrogen and cell. For example, if the cell is a cell as deposited under accession number DSM ACC3321, suitable concentration ranges and culture times for manifestation of the discontinuous basolateral adherens junctions phenotype in presence of fulvestrant, tamoxifen, ZK 164015, MPP dihydrochloride, and (Z)-4-hydroxytamoxifen, without being limited thereto, are:
MCF7/vBOS cells were grown on glass coverslips in multi-well tissue culture plates (TPP) for 24 h and then treated for at least 48 h with 0.1% EtOH (solvent control) and different concentrations (10^−11 M, 10^−10 M, 10^−9 M, 10^−8 M, 10^−7 M) of the ERα antagonist fulvestrant (Sigma-Aldrich, CAS-No. 129453-61-8). During experiments, medium was exchanged on a daily basis. All experiments were performed at 37° C. with 5% CO2 in reduced-serum medium (phenol red-free DMEM (Gibco), 5% FBS (Biochrom, S 0615, LOT1353 W), 1% glutamine, 100 μg/ml streptomycin/100 U/ml penicillin (Biochrom)).
After treatment with fulvestrant the adherens junction morphology of the cells was analysed by means of immunofluorescence microscopy. Briefly, cells were fixed with 3.7% formaldehyde in PBS for 15 min, permeabilized with 0.2% Triton X-100 in PBS for 30 min, and blocked with 5% FBS in PBS for 60 min (all steps at room temperature). Incubation with primary and secondary antibodies in PBS containing 1.5% BSA was carried out over night at 4° C. and for 1 h at room temperature, respectively. The following antibodies/dyes were used: anti-E-Cadherin (H-108, Santa Cruz); DAPI (Roche); secondary antibody conjugated to Cy3 (alternatives are, e.g.: Cy2, Alexa Fluor 488/555/647; all Invitrogen). The samples were then mounted in Dako fluorescence mounting medium (Dako) or VectaShield (Vector Labs). All images were acquired with an Axio Observer.Z1 widefield microscope equipped with an Apotome.2 device for optical sectioning using structured illumination (Zeiss). After 48 hours the fraction of cells displaying discontinuous adherens junctions was determined by CellProfiler/CellProfer-analyst software (see example 7).
In view of the results obtained with MCF7/vBOS cells upon exposure to fulvestrant the inventors speculated that a similar phenotype might be obtainable with other ERα antagonist as well. To test this hypothesis, the inventors used the ERα antagonists tamoxifen (Sigma-Aldrich, CAS-No. 10540-29-1), MPP dihydrochloride (Sigma-Aldrich, CAS-No. 911295-24-4), ZK164015 (Tocris, CAS-No. 177583-70-9), and (Z)-4-hydroxytamoxifen (Tocris, CAS-No. 68047-06-3). The same protocols as in example 2 were used with the following deviations: • Tamoxifen: Cells were grown for 24 h and then treated for 144 h with 10^−8 and 10^−6 M tamoxifen. • MPP dihydrochloride: Cells were grown for 24 h and then treated for 144 h with 10^−8 and 10^−6 M MPP dihydrochloride. • ZK164015: Cells were grown for 24 h and then treated for 48 h with 10^−9 and 10^−7 M ZK164015. • (Z)-4-hydroxytamoxifen: Cells were grown for 24 h and then treated for 72 h with 10^−9 and 10^−8 M (Z)-4-hydroxytamoxifen.
Subsequently, quantitative image analysis was performed using a pipeline that builds on the CellProfiler software (Carpenter et al., Genome Biol., 2006; 7(10):R100.) for segmentation and extraction of cellular parameters, and on the CellProfiler Analyst software (Jones et al., BMC Bioinformatics, 2008 Nov. 15; 9:482) for parameter-based classification of cells. In the segmentation process, primary objects (nuclei) were identified from DAPI staining by global thresholding using Otsu's method. […]

Molecule	fraction of cells with continuous adherens junctions (CellProfiler quantification) ([1]; 10^−8 M fulvestrant plus different concentrations, 48 hours)	prevention of the formation of discontinuous adherens junctions [1]	minimal concentration preventing the fulvestrant-induced phenotype [1]	Concentration (M) suitable for manifestation of the discontinuous basolateral adherens junctions phenotype [2]	Culture time (h) typically required for formation of discontinuous basolateral adherens junctions [2] [h]	formation of discontinuous adherens junctions (E-Cadherin staining) [2]
C[C@]12CC[C@@H]3c4ccc(O)cc4CC[C@H]3[C@@H]1CC[C@@H]2O [17β-estradiol]	restores the fraction of cells with continuous adherens junctions	prevention of the formation of discontinuous adherens junctions	10^−9 M	–	–	–
CC/C(=C(\c1ccc(O)cc1)c1ccc(OCCN(C)C)cc1)c1ccccc1 [(Z)-4-hydroxytamoxifen]	–	–	–	10^−9-10^−7 M	48 to 144	Discontinuous adherens junctions became apparent
Cc1c(-c2ccc(O)cc2)nn(-c2ccc(O)cc2)c1-c1ccc(OCCN2CCCCC2)cc1.Cl.Cl [MPP dihydrochloride]	–	–	–	10^−6-10^−5 M	30 to 168	Discontinuous adherens junctions became apparent
CC/C(=C(\c1ccccc1)c1ccc(OCCN(C)C)cc1)c1ccccc1 [Tamoxifen]	–	–	–	10^−6-10^−5 M	30 to 168	Discontinuous adherens junctions became apparent
CCCCCS(=O)(=O)CCCCCCCCCCn1c(-c2ccc(O)cc2)c(C)c2cc(O)ccc21 [ZK 164015]	–	–	–	10^−7-10^−5 M	24 to 96	Discontinuous adherens junctions became apparent
CC(C)(c1ccc(O)cc1)c1ccc(O)cc1 [bisphenol A]	–	prevention of the formation of discontinuous adherens junctions	10^−5 M	–	–	–
nonylphenol	–	prevention of the formation of discontinuous adherens junctions	10^−5 M	–	–	–
